The test system of this data set is STAM mice. In words: STAM mouse model of steatohepatitis (diabetes induced, high fat diet), treatment with GR-MD-02. The class given is in vivo. The procedure:
The experimental model used in this example is the mouse in which diabetes was induced and a high fat diet was administered, a model that has been called STAM mice. […] This is a proven model in which the mice consistently develop NASH with hepatocyte fat accumulation, evidence of hepatocyte toxicity, portal and lobular inflammatory infiltrates, peri-sinusoidal fibrosis, advanced fibrosis with nodule formation, cirrhosis, and ultimately hepatocellular carcinoma in a certain percentage of animals.
The progression of disease appearance is fatty liver (FL) by five weeks of age, steatohepatitis (NASH) by 7 weeks of age, fibrosis (Fib) by 9 weeks of age, nodule formation (N) by 13 weeks of age, and some animals developing hepatocellular carcinoma (HC) by 16 weeks of age (FIG. 1).
GR-MD-02, produced as described in Example 1, was given in a dose of 60 mg/kg twice weekly intravenously for four (4) weeks at the each of the starting times indicated. Early treatment was given for weeks 6 through 9 and late therapy was given for weeks 9 through 12.
The NFLD activity score was used to evaluate the severity of liver disease on histological sections of liver and gives points for three aspects of NASH pathology including, steatosis (0 (<5%), 1 (5-33%), 2 (33-66%), or 3 (>66%)), hepatocyte ballooning (0 (none), 1, (few), or […]), and lobular inflammation (0 (no foci), 1 (<2 foci/200× field), 2 (2-4 foci/200× field), or 3 (>4 foci/200× field)). The total number of points is the NFLD activity score.

As to galacto-rhamnogalacturonate [GR-MD-02], where the note is “60 mg/kg twice weekly i.v., early or late treatment schedule, vs vehicle control”, the whole blood glucose entry was “no statistical differences”. Also, the “changes in body weight” value (60 mg/kg twice weekly intravenously, early (weeks 6-9) and late (weeks 9-12) treatment, vs vehicle (normal saline)) is “no difference in body weight”. Further, the “Sirius red staining of liver histology” value (early (6-9 weeks) and late (9-12 weeks) treatment groups, vs vehicle control) is given as “marked reduction in Sirius red staining”. Further, the “collagen percent area (Sirius red, computer assisted morphometric analysis)” value (early and late treatment groups and both combined, vs vehicle) was “markedly statistically significantly reduced”. The “NFLD activity score on liver histology (average)” value (early treatment group (weeks 6-9), 60 mg/kg twice weekly i.v., vehicle average 5, p<0.01 vs vehicle) turned out to be 3. The “alpha-Smooth Muscle Actin in liver tissue (immunohistochemical staining, digital morphometry)” value (marker for activated stellate cells, vs vehicle) is given as “marked reduction in alpha-Smooth Muscle Actin”. For the same substance, the “galectin-3 in liver tissue (immunohistochemical staining, digital morphometry)” value (vs vehicle treated animals) is reported as “marked reduction of galectin-3”.

For the origin of these results see US8658787B2, “Galacto-rhamnogalacturonate compositions for the treatment of non-alcoholic steatohepatitis and non-alcoholic fatty liver disease” (Galectin Therapeutics Inc., priority 2011, dated 2014).
